Target: T1, cannabinoid receptors present in the mouse spleen (Mus musculus, UniProt P47936)
T1 construct: from tissue; host or cells: mouse spleen
Experiment: In vivo affinity for cannabinoid receptors in mouse spleen after oral administration
Procedure: The tests were carried out according to the experimental conditions described by Rinaldi-Carmona et al., J. Pharmacol. Exp. Ther., 1998, 284, 644–650.
Thus, the compounds of Examples 7, 44, 46, 72, 89, 106, 120, 130 and 132, for which the ratio of the affinity for the CB1 receptors to that for the CB2 receptors is between 400 and 4 000, are active orally with an ED50 of between 0.2 mg/kg and 20 mg/kg.

T1 sequence (P47936 whole entry): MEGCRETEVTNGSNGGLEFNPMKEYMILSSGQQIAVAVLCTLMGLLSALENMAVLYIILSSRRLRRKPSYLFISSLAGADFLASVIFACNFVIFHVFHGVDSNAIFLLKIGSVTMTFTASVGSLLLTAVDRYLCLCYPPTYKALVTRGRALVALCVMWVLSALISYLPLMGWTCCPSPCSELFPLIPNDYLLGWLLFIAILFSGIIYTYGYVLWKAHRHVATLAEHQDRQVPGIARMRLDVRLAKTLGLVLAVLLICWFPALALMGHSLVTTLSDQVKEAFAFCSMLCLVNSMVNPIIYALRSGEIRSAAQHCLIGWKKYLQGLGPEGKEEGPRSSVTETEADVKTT

| Structure (SMILES) | ED50 [mg/kg] |
| --- | --- |
| Cc1c(C(=O)c2cccc(Cl)c2Cl)c2cccc(Br)c2n1CCCS(C)(=O)=O [Example 7, (7-Bromo-2-methyl-1-(3-(methylsulphonyl)propyl)-1H-indol-3-yl)(2,3-dichlorophenyl)methanone] | 0.2 to 20 |
| Cc1c(C(=O)c2cccc(C(F)(F)F)c2F)c2ccc(Cl)c(Cl)c2n1CCCNS(C)(=O)=O [Example 72, N-(3-(6,7-Dichloro-3-[2-fluoro-3-(trifluoromethyl)benzoyl]-2-methyl-1H-indol-1-yl)propyl)methanesulphonamide] | 0.2 to 20 |
